The source of these data is paper doi:10.1101/2024.05.07.592940v1 (biorxiv, 2024).

Test [1] has as its target T1, PTPN2 (Homo sapiens, UniProt P17706).
T1 sequence (P17706 1-314): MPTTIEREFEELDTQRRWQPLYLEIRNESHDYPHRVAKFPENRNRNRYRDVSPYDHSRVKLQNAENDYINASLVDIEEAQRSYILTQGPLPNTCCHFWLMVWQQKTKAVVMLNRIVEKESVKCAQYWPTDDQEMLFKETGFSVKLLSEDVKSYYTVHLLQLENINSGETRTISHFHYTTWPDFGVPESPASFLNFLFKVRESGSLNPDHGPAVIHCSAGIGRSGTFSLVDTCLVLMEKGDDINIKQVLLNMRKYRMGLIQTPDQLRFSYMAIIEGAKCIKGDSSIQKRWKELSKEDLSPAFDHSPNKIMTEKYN
The test can be described thus: microscale thermophoresis. Format: binding. (In MST a laser heats a spot of the sample, and binding alters the fluorescence response.)

The target in test [2] is T1, PTPN2. The test can be described thus: pNPP hydrolysis, absorbance […] nm. The class given is biochemical.
Test [3] deals with T2, PTPN2 (Homo sapiens, UniProt P17706, C216G).
T2 sequence (P17706 1-314 C216G): T1 sequence (P17706 1-314) with C216G
The test can be described thus: microscale thermophoresis. Format: binding.

The target of the next test is T3, PTP1B (Homo sapiens, UniProt P18031).
T3 sequence (P18031 1-321): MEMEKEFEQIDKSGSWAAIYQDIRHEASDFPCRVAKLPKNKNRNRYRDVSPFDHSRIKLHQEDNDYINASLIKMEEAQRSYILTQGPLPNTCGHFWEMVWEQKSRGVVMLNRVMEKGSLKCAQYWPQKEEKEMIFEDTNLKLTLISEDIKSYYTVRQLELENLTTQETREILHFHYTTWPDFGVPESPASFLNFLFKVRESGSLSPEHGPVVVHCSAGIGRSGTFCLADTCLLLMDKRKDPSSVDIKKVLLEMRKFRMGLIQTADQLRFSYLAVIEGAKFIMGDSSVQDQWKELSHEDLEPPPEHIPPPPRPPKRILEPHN
The test can be described thus: pNPP hydrolysis, absorbance […] nm. Format: biochemical.

Molecules are shown by their SMILES. Residue numbers refer to the chain shown, from its start.

The term Kd denotes a measure of binding affinity in units of concentration. In general, IC50 refers to the concentration that gives 50% inhibition. Low values mean higher potency, high ones lower potency. For `O=c1sn(CCOc2ccc([N+](=O)[O-])cc2)c(=O)n1Cc1ccccc1` [K73], the Kd is 0.646 µM at PTPN2 [1] and 31.6 µM on PTPN2 [3]. Besides, the half-maximal inhibitory concentration (IC50) was 0.324 µM at PTPN2 [2] and 4.27 µM against PTP1B.

In the case of `O=c1sn(-c2cccc3ccccc23)c(=O)n1Cc1ccccc1` [NP-12], the results for the IC50 on PTPN2 [2] and on PTP1B were 3.23 µM and 4.66 µM, respectively.
